From patent publication US20240374655A1, “INTESTINAL MICROBIOTA AND GVHD” (Memorial Sloan-Kettering Cancer Center, priority 2014, published 2024)
“Also recorded” adds a separate entry of the source. Each block holds one compound with its values, some of them ahead of it.

Assays:
murine Blautia = test: In vitro suppression of Blautia by L. johnsonii / Lacto-conditioned media and rescue by reducing agents; format: cell-based; settings: reducing agent added in the presence of Lacto-conditioned media
Method: A) Murine Blautia was grown in peptone yeast glucose broth either alone, or with murine L. johnsonii in conditions of limited media or ample media, and viable colonies were quantified. B) L. johnsonii was allowed to grow in media to plateau phase, then sterile filtered to generate Lacto-conditioned media. Effects of Lacto-conditioned media on the viability of L. johnsonii and murine Blautia were evaluated when mixed with fresh media in a 1:1 ratio. Effects of the addition of 3 reducing agents indicated was also evaluated.
From studying the effects of calorie restriction on intestinal microbiota composition it was observed that obligate anaerobes (Clostridia, Bacteroidetes) are reduced in abundance while facultative anaerobes (Lactobacillos, Proteobacteria) expand. Production of free radicals by E. coli in the setting of starvation has been described previously (Saby S, et al. Appl Environ Microbiol. 1999; 5600-5603). Experiments were designed to examine in vitro if Lactobacillus johnsonii could suppress the growth of our murine Blautia isolate under starvation conditions, and to further investigate if production of free radicals could be a contributing factor. […] The effects of media that had supported the growth of L. johnsonii to plateau phase were further investigated following sterile filtration. […] It was then examined if reducing agents could rescue Blautia from Lacto-conditioned-media-mediated suppression.

[1] = Antibiotic treatment in MHC-matched minor antigen-mismatched allo-HSCT GVHD model (C57BL/6 into 129S1); format: in vivo; settings: mouse, in vivo
Method: FIGS. 16A-16J Imipenem treatment, compared to aztreonam treatment, suppresses anaerobic commensals and elevates GVHD severity in mice. (A) Flora composition analysis using 16S rRNA sequencing prior to and after treatment with the indicated antibiotics in healthy C57BL/6 mice. Mice were treated with subcutaneous (SC) injections of each antibiotic twice a day for two days (500 mg/kg for pip/tazo and 100 mg/kg for others) and stool samples were collected the following day. Values represent mean±SEM (n=3-4). *, P<0.05; **, P<0.01; ****, P<0.0001. Data are representative of two independent experiments. (B to J) Lethally irradiated 129S1 recipients were transplanted with MHC matched C57BL/6 T-cell depleted bone marrow (TCD-BM) cells and 1×10^6 C57BL/6 T cells. Control mice received TCD-BM only. Recipients were treated with imipenem or aztreonam (100 mg/kg, SC, 3 times a week from day 10 to day 24 following allo-HSCT). (B) Comparison of overall survival, with combined data from three independent experiments (n=15-43). ****, P<0.0001. (C) Mice with GVHD treated with antibiotics were sacrificed on day 21 and GVHD histology scores in target organs were quantified by a blinded pathologist. Data are combined from three independent experiments (n=5-20). *, P<0.05. (D) Stool samples obtained from mice treated with imipenem or aztreonam similarly to those in B were collected on day 21 and analyzed by 16S rRNA gene sequencing, followed by principal coordinate analysis of weighted and normalized UniFrac distances. (E and F) Differential taxonomic abundance between aztreonam treated and imipenem treated recipients was analyzed by (E) linear discriminate analysis coupled with effect size measurements (LEfSe) and (F) by LEfSe projected as a cladogram. […] (I) Stool samples collected from mice with GVHD treated with antibiotics were collected on day 21, and evaluated by metagenomic shotgun sequence analysis, comparison of bacterial species abundance determined by taxonomy. […] (J) Principal component analysis of quantification of sequence reads from KEGG gene orthologs comparing samples from mice treated with aztreonam and imipenem.
(A to G) Lethally irradiated 129S1 recipients were transplanted with C57BL/6 TCD-BM cells with 1×10^6 C57BL/6 T cells. […] (A) Colonic lamina propria-infiltrating leukocytes from recipients were analyzed on day 21 by flow cytometry. […] (C) Lamina propria-infiltrating leukocytes from the colon on day 21 were enriched for CD11b and CD11e simultaneously using a mixture of magnetic beads and IL-23 transcripts were quantified by real time PCR. […] (D) Immunofluorescent staining was used to quantify pSTAT3, CD3, and DAPI positive cells in colonic tissue collected on day 21. […]

[2] = tested on: intestinal microbiota (Clostridiales, Enterococcus); test: Flora composition (16S rRNA sequencing of stool) after antibiotic treatment of healthy mice; format: in vivo, C57BL/6 mice; settings: 100 mg/kg SC twice a day for two days
Method: FIGS. 16A-16J Imipenem treatment, compared to aztreonam treatment, suppresses anaerobic commensals and elevates GVHD severity in mice. (A) Flora composition analysis using 16S rRNA sequencing prior to and after treatment with the indicated antibiotics in healthy C57BL/6 mice. Mice were treated with subcutaneous (SC) injections of each antibiotic twice a day for two days (500 mg/kg for pip/tazo and 100 mg/kg for others) and stool samples were collected the following day. Values represent mean±SEM (n=3-4). *, P<0.05; **, P<0.01; ****, P<0.0001. Data are representative of two independent experiments. (B to J) Lethally irradiated 129S1 recipients were transplanted with MHC matched C57BL/6 T-cell depleted bone marrow (TCD-BM) cells and 1×10^6 C57BL/6 T cells. Control mice received TCD-BM only. Recipients were treated with imipenem or aztreonam (100 mg/kg, SC, 3 times a week from day 10 to day 24 following allo-HSCT). (B) Comparison of overall survival, with combined data from three independent experiments (n=15-43). ****, P<0.0001. (C) Mice with GVHD treated with antibiotics were sacrificed on day 21 and GVHD histology scores in target organs were quantified by a blinded pathologist. Data are combined from three independent experiments (n=5-20). *, P<0.05. (D) Stool samples obtained from mice treated with imipenem or aztreonam similarly to those in B were collected on day 21 and analyzed by 16S rRNA gene sequencing, followed by principal coordinate analysis of weighted and normalized UniFrac distances. (E and F) Differential taxonomic abundance between aztreonam treated and imipenem treated recipients was analyzed by (E) linear discriminate analysis coupled with effect size measurements (LEfSe) and (F) by LEfSe projected as a cladogram. Data are representative from more than five independent experiments in D to F. (G and H) Comparisons of bacterial abundance at the phylogenetic levels of (G) order, and (H) genus are shown. Data are combined from 6 independent experiments (n=32-36). ***, P<0.001. (I) Stool samples collected from mice with GVHD treated with antibiotics were collected on day 21, and evaluated by metagenomic shotgun sequence analysis, comparison of bacterial species abundance determined by taxonomy. Numbers 1 through 6 along the x-axis represent the individual subjects. (J) Principal component analysis of quantification of sequence reads from KEGG gene orthologs comparing samples from mice treated with aztreonam and imipenem.
To further explore causality and mechanisms of the effects of antibiotics with anaerobic activity on GVHD, we turned to experiments in mice. […] Mice were treated by subcutaneous (SC) injections of each antibiotic twice a day for two days (500 mg/kg for pip/tazo and 100 mg/kg for others) and stool samples were collected, followed by 16S rRNA gene amplification and sequence analysis.

Clostridiales = test: Change in Clostridiales abundance in paired stool samples of allo-HSCT patients before and after starting antibiotics; format: in vivo, human; settings: before vs after starting the antibiotic; compared to aztreonam
Text: (A) A retrospective cohort was identified of 283 adult patients who received non-T cell depleted allo-HSCT at our center from 1994 to 2013 and received antibiotics for neutropenic fever. Patients were stratified by exposure to antibiotics with significant activity against anaerobes. Outcomes indicated were depicted by Kaplan-Meier plots and curves compared by the logrank test. (B to G) Six representative clinical cases with time courses depicted of fecal microbiota composition and administration of antibiotic treatments during the course of allo-HSCT. […] (H) Change in abundance of Clostridiales in paired fecal samples from patients undergoing allo-HSCT collected prior to and following treatment with the indicated antibiotics.
For each stool specimen, DNA was purified using a phenol-chloroform extraction technique with mechanical disruption (bead-beating) based on a previously described protocol (60). Samples were analyzed using the 454 GS FLX Titanium platform to sequence the V1-V3 region of the bacterial 16S rRNA gene or were alternatively analyzed using the Illumina MiSeq platform to sequence the V4-V5 region of the 16S rRNA gene. Sequence data were compiled and processed using mothur version 1.34 (61), screened and filtered for quality (62). Operational taxonomic units (OTUs) were classified to the species level (63) using a modified form of the Greengenes reference database (64). Principal component analysis was performed upon a weighted and normalized Unifrac (65) distance matrix of OTU abundance in R software. Data from this study has been stored in the NCBI Sequence Read Archive (see url: www.ncbi.nlm.nih.gov/sra).
HSCT patients were on intestinal bacterial composition. In 2009, our center began to prospectively collect weekly stool samples from patients undergoing allo-HSCT. From this specimen bank, we identified paired stool samples collected from patients prior to as well as following initiation of specific antibiotics during the course of allo-HSCT. […]

[3] = tested on: 17 strains from a clostridial mix; test: Growth of strains from a clostridial mix in BHI media without glucose with added sugars; format: cell-based, Clostridia; settings: BHI media without glucose plus sugar
Text: Glucose gave the best results and was able to support the growth of 10 of the total 17 strains. Glucose, however would have limited benefit since it likely doesn't give a selective advantage to the beneficial bacteria. Raffinose was able to support 5 strains, while cellobiose appeared to support 4 strains not supported by raffinose. In one embodiment, therefore, a mixture of raffinose and cellobiose can be administered to a subject to provide support for at least a portion of the beneficial bacteria.

[4] = Sugars in drinking water to augment Blautia and mitigate experimental GVHD; format: in vivo, C57BL/6 mice; settings: for GVHD severity / survival of mice with GVHD: 10 g/L in drinking water beginning one week before BMT
Method: Left: Intestinal abundance of Blautia was evaluated on day 14 after BMT, results of a single experiment. Right: Mice were followed for development of clinical GVHD (combined results of 2 experiments).
Mice were followed for development of clinical GVHD (combined results of 3 experiments).
C57BL/6 mice were inoculated orally with a murine Blautia isolate known to ferment xylose. Some mice were then administered xylose in the drinking water (10 g/L) beginning 7 days prior to BMT with B10.BR BM and T cells.

[5] = tested on: Lactobacillus johnsonii of C57BL/6 origin; test: Sugar fermentation by bacterial isolate (pH and optical density in media lacking glucose); format: cell-based
Method: (§1) Utilizing Blautia isolate of C57BL/6 origin, as well as a Lactobacillus johnsonii of C57BL/6 origin, the ability of these bacteria to ferment a variety of sugars was evaluated using pH and optical density to evaluate bacterial growth in media lacking glucose. Lactobacillus johnsonii was evaluated because this bacteria expands in the setting of calorie restriction at the expense of Clostridia, and is thus presumably a direct competitor for nutrients in the murine intestine.

[6] = tested on: Blautia isolate of C57BL/6 origin; test: as above; format: cell-based
Method: as §1

SMILES: N[C@@H](CS)C(=O)O [L-cysteine]
Rescue of Blautia growth from Lacto-conditioned-media-mediated suppression (murine Blautia): able to support Blautia growth

SMILES: O=C1O[C@H]([C@@H](O)CO)C(O)=C1O [ascorbic acid]
Rescue of Blautia growth from Lacto-conditioned-media-mediated suppression (murine Blautia): able to support Blautia growth

Bacteria past the colonic epithelial barrier [1]: not seen
SMILES: C[C@H]1[C@H](NC(=O)/C(=N\OC(C)(C)C(=O)O)c2csc(N)n2)C(=O)N1S(=O)(=O)O [aztreonam]
Abundance of Clostridiales in stool [2]: spared Clostridiales
Change in Clostridiales abundance in stool of patients (Clostridiales): relative preservation of Clostridiales abundances

SMILES: CO/N=C(\C(=O)N[C@@H]1C(=O)N2C(C(=O)[O-])=C(C[N+]3(C)CCCC3)CS[C@H]12)c1csc(N)n1 [cefepime]
Abundance of Clostridiales in stool [2]: spared Clostridiales

SMILES: O=C[C@H](O)[C@@H](O)[C@H](O[C@@H]1O[C@H](CO)[C@@H](O)[C@H](O)[C@H]1O)[C@H](O)CO [cellobiose]
Number of strains supported that are not supported by raffinose [3]: 4 strains

SMILES: OC[C@H]1O[C@H](OC[C@H]2O[C@H](O[C@]3(CO)O[C@H](CO)[C@@H](O)[C@@H]3O)[C@H](O)[C@@H](O)[C@@H]2O)[C@H](O)[C@@H](O)[C@H]1O [raffinose]
GVHD severity / survival of mice with GVHD [4]: reduces GVHD severity
Number of strains whose growth is supported ([3]; of the total 17 strains): 5 strains

SMILES: C[C@H](O)[C@H](O)[C@@H](O)[C@@H](O)C=O [rhamnose]
Fermentation of sugar by Lactobacillus [5]: not by Lactobacillus
Fermentation of sugar by Blautia [6]: fermented by Blautia

SMILES: O=C([O-])CS.[Na+] [sodium thioglycolate]
Rescue of Blautia growth from Lacto-conditioned-media-mediated suppression (murine Blautia): able to support Blautia growth

SMILES: O=C[C@H](O)[C@@H](O)[C@H](O)CO [xylose]
GVHD severity / survival of mice with GVHD [4]: improved survival; also recorded: reduced GVHD severity
Intestinal abundance of Blautia ([4]; 10 g/L in drinking water from 7 days before BMT, day 14 after BMT, 16S deep sequencing): expansion of Blautia; also recorded: increased abundance
Fermentation of sugar by Lactobacillus [5]: not by Lactobacillus
Fermentation of sugar by Blautia [6]: fermented by Blautia
